The text below walks through data of US20230258642A1, “COMPOSITIONS AND METHODS FOR IDENTIFICATION OF MODULATORS OF RAS PROTEIN COMPLEXES” (QUANTA THERAPEUTICS, INC., priority 2020, published 2023).

SMILES strings stand for the structures.

One test concerns the target T1, Annexin V (Homo sapiens, UniProt P08758).
T1 sequence (P08758 1-320): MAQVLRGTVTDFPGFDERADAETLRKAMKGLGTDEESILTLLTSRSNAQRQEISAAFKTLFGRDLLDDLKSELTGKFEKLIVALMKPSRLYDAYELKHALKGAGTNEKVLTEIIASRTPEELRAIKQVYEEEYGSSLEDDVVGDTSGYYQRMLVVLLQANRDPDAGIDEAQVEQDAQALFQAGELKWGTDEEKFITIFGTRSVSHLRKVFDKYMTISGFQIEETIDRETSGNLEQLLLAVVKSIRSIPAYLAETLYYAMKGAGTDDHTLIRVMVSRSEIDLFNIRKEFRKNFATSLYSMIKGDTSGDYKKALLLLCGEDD
The test can be described thus: Annexin V counter-screen SHG assay on phosphatidyl serine surface. It is filed as binding. The text has this: Annexin V binds to phosphatidyl serine membrane like KRAS^G12D-FMe in a calcium-dependent manner. However, Annexin V is structurally unrelated to KRAS/RAF1 complex. Addition of EDTA, a chelation agent, results in >80% decrease in SHG signal due to loss of Annexin V protein from the phosphatidyl serine surface. […] This assay was established as a counter-screen assay to the KRAS^G12D-FMe+SH-active RAF1^RBDCRD interaction, allowing detection of false-positives due to metal chelation or non-specific protein binding.
In general terms: A counterscreen serves to expose hits that act by an unwanted route or on another target.

Test [1] has as its target T2, KRAS^G12D-FMe+RAF1^RBDCRD-SHG2 complex (Homo sapiens, UniProt P01116, G12D).
T2 construct: 1; farnesyl and carboxymethyl modification (FMe) at the C-terminal Cys
The test can be described thus: SHG complex assay: KRAS^G12D-FMe + SH-active RAF1^RBDCRD complex tethered to a PS bilayer. It is filed as binding. The note with it: complex tethered overnight in the presence of 1 mM GDP. The protocol:
Factors contributing towards maximizing the complex SHG signal compared to bilayer-tethered KRAS^G12D-FMe alone were further optimized in order to develop a robust screening assay that would allow the separation of real conformational modulators from the baseline signal noise. Accordingly, a pre-formed complex was tethered to the bilayer and the baseline SHG intensity of the complex was compared to each individual component.
In comparison, each protein component was incubated on the PS bilayer to make sure the SHG signal generated by the complex was distinct from any signal produced by the individual components (FIG. 3B). The PS bilayer alone produced a baseline SHG signal around 6000. […]
Since RAF1 binding to KRAS is nucleotide dependent, the SHG signal change was monitored in the presence of 10 mM EDTA and 1 mM GDP. […] The SHG response to this control reinforced that the detected complex signal behaves according to its characterized biology.
A beam from a Ti:S femtosecond laser is used as the fundamental according to procedures known to those skilled in the art. […] Second harmonic light generated by the surface is collected, filtered from the fundamental, and detected by a photomultiplier tube (PMT) according to procedures known to those skilled in the art. A baseline signal with declining intensity due to photobleaching is recorded. […]

In the case of `O=C(O)CN(CCN(CC(=O)O)CC(=O)O)CC(=O)O` [EDTA], at Annexin V, the “decrease in SHG signal (loss of Annexin V from phosphatidyl serine surface)” value is over 80%.

With `Nc1nc2c(ncn2[C@@H]2O[C@H](COP(=O)(O)OP(=O)(O)O)[C@@H](O)[C@H]2O)c(=O)[nH]1` [GDP], the “complex SHG signal” value in test [1] is listed as “no complex SHG signal was detected”.

As for `COc1ccc2c(c1)CN(C(=O)CCN1CCC(Cc3ccccc3)CC1)CCS2` [K201], the “SHG response upon addition to Annexin V” value at Annexin V was “dose-dependent SHG response”.
